Active and inactive are the calls of the source.
Key:
[1] = cells; assay type: functional, cell-based
[2] = molecular target: T1, SUMO-activating enzyme (Homo sapiens, UniProt Q9UBT2); assay: SUMOylation inhibitor hit validation, confirmation, SUMOylation inhibitor project, biochemical, AlphaScreen (AID 2018); assay type: functional
[3] = molecular target: T2, Exodeoxyribonuclease V (Escherichia coli (strain K12), UniProt P04993+P07648+P08394); assay: E. coli RecBCD inhibitors, dose response, counter-screen for AddAB inhibitor project, absorbance, V66 E. coli, mutant T4 phage (AID 492957); assay type: functional, cell-based, Escherichia coli str. K-12 substr. MG1655
T2 sequence (P04993 whole entry): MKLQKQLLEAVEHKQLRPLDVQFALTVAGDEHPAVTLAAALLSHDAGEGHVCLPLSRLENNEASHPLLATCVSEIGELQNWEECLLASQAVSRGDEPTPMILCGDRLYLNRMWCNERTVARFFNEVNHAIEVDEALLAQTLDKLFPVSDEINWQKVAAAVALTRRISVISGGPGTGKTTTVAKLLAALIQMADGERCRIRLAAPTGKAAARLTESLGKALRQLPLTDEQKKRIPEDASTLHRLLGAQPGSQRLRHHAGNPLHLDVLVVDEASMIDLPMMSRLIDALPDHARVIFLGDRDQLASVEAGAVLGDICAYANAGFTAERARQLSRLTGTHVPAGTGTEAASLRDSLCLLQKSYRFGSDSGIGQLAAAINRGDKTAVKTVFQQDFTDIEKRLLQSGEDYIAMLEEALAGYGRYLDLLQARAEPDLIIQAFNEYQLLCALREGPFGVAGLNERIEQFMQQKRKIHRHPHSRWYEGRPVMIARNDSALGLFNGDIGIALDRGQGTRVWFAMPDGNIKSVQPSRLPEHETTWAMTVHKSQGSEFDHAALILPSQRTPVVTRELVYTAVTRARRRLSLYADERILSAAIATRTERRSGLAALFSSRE
T2 sequence (P07648 whole entry): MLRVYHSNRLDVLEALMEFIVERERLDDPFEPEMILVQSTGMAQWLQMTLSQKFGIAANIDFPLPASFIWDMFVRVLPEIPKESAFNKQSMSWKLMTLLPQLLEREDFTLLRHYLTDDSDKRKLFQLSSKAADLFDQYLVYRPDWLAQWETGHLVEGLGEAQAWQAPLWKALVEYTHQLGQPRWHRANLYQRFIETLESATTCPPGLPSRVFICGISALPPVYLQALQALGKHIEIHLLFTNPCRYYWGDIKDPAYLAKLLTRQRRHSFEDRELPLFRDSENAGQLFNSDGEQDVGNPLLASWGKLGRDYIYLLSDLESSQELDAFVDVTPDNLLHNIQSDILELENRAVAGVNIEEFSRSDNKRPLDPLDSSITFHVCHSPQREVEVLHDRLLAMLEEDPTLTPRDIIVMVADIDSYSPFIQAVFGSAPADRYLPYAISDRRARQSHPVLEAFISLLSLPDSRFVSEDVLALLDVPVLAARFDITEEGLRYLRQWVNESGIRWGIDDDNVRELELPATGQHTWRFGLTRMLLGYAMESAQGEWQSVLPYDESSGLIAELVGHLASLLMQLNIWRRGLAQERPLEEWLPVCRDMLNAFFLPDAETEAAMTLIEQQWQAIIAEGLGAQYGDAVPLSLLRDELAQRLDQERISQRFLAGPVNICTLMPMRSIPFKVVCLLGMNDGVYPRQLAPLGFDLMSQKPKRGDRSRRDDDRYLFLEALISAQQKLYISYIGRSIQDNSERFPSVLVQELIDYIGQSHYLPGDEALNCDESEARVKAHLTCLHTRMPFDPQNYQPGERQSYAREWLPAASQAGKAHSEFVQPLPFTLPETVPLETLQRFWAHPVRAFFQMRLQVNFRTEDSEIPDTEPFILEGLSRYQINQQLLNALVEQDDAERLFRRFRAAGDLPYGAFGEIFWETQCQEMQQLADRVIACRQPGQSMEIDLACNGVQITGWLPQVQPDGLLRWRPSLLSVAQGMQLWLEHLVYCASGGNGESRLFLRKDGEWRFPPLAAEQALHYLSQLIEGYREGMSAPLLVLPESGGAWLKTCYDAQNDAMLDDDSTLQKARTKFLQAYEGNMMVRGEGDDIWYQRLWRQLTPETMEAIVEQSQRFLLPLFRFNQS
T2 sequence (P08394 whole entry): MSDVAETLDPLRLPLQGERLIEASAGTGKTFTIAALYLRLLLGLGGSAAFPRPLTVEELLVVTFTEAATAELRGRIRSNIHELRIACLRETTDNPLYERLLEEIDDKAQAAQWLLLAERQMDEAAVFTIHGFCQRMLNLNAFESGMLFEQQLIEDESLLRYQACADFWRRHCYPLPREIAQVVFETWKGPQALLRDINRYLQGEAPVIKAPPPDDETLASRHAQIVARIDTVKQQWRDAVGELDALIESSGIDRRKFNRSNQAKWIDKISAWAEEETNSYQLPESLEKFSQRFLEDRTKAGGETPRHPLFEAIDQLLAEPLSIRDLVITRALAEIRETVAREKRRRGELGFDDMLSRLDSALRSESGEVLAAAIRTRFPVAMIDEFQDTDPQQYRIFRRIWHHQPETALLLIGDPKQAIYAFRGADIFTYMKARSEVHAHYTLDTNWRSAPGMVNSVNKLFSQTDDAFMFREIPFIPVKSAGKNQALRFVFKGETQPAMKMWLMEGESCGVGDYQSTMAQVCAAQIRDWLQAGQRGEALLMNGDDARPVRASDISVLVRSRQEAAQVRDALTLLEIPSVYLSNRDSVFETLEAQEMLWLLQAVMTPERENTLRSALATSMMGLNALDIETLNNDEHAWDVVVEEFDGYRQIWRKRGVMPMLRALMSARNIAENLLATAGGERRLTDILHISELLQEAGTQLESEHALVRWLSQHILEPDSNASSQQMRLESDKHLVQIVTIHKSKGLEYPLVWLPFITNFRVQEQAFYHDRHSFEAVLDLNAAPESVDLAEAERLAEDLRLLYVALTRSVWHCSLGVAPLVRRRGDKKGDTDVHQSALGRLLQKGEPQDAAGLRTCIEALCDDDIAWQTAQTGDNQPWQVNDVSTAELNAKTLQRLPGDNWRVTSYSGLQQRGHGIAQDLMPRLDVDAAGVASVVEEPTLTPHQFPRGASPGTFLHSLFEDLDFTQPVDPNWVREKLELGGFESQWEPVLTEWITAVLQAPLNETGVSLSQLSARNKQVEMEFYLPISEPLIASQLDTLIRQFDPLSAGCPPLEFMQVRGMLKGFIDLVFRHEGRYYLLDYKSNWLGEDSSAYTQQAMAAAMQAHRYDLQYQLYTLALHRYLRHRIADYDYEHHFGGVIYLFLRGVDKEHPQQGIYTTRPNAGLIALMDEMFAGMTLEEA

[4] = HepG2 cell cytotoxicity, dose response, cytotoxicity control for Shn3 inhibitor project, CellTiter-Glo, cherry-picked (AID 624134); assay type: functional, cell-based
[5] = Shn3 3'UTR reporter inhibitors, dose response, cell-based, Clone20 osteoblasts, firefly luciferase, cherry-picked (AID 624132); assay type: functional;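 further: firefly luciferase luminescence from reporter carrying the Shn3 3'UTR in osteoblasts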
[6] = control 3'UTR Renilla luciferase suppression, dose response, counter-screen for Shn3 inhibitor project, cell-based, Clone20-Shn3RL, cherry-picked (AID 624133); assay type: functional
[7] = Counterscreen for AddAB inhibitors: absorbance-based bacterial cell-based high throughput dose response assay for inhibitors of bacterial viability. [Related pubchem assays (depositor defined):AID435030, AID449728, AID449731, AID488942, AID488955, AID488956]; assay type: functional
[8] = cells; assay type: functional, cell-based; remark: listed apart in the source
[9] = molecular target: T1, SUMO-activating enzyme; assay: inhibitors of in vitro SUMOylation cascade, primary screen, biochemical, HTRF, uHTS (AID 2006); assay type: protein-complex assay
[10] = system: INS1; assay: beta cell apoptosis inhibitors, cytokine rescue, dose response, luminescence, retest (AID 449756); assay type: functional, cell-based; settings: Rattus norvegicus;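 further: cell death triggered by IL-1 beta plus TNF-alpha plus IFN-gamma mixture; protective hits raise ATP signal compared with cytokine alone wells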
[11] = molecular target: T3, Voltage-gated N-type calcium channel alpha-1B subunit/Amyloid beta A4 precursor protein-binding family A member 1 (Homo sapiens, UniProt Q00975+Q02410); assay type: protein assay
T3 sequence (Q00975 whole entry): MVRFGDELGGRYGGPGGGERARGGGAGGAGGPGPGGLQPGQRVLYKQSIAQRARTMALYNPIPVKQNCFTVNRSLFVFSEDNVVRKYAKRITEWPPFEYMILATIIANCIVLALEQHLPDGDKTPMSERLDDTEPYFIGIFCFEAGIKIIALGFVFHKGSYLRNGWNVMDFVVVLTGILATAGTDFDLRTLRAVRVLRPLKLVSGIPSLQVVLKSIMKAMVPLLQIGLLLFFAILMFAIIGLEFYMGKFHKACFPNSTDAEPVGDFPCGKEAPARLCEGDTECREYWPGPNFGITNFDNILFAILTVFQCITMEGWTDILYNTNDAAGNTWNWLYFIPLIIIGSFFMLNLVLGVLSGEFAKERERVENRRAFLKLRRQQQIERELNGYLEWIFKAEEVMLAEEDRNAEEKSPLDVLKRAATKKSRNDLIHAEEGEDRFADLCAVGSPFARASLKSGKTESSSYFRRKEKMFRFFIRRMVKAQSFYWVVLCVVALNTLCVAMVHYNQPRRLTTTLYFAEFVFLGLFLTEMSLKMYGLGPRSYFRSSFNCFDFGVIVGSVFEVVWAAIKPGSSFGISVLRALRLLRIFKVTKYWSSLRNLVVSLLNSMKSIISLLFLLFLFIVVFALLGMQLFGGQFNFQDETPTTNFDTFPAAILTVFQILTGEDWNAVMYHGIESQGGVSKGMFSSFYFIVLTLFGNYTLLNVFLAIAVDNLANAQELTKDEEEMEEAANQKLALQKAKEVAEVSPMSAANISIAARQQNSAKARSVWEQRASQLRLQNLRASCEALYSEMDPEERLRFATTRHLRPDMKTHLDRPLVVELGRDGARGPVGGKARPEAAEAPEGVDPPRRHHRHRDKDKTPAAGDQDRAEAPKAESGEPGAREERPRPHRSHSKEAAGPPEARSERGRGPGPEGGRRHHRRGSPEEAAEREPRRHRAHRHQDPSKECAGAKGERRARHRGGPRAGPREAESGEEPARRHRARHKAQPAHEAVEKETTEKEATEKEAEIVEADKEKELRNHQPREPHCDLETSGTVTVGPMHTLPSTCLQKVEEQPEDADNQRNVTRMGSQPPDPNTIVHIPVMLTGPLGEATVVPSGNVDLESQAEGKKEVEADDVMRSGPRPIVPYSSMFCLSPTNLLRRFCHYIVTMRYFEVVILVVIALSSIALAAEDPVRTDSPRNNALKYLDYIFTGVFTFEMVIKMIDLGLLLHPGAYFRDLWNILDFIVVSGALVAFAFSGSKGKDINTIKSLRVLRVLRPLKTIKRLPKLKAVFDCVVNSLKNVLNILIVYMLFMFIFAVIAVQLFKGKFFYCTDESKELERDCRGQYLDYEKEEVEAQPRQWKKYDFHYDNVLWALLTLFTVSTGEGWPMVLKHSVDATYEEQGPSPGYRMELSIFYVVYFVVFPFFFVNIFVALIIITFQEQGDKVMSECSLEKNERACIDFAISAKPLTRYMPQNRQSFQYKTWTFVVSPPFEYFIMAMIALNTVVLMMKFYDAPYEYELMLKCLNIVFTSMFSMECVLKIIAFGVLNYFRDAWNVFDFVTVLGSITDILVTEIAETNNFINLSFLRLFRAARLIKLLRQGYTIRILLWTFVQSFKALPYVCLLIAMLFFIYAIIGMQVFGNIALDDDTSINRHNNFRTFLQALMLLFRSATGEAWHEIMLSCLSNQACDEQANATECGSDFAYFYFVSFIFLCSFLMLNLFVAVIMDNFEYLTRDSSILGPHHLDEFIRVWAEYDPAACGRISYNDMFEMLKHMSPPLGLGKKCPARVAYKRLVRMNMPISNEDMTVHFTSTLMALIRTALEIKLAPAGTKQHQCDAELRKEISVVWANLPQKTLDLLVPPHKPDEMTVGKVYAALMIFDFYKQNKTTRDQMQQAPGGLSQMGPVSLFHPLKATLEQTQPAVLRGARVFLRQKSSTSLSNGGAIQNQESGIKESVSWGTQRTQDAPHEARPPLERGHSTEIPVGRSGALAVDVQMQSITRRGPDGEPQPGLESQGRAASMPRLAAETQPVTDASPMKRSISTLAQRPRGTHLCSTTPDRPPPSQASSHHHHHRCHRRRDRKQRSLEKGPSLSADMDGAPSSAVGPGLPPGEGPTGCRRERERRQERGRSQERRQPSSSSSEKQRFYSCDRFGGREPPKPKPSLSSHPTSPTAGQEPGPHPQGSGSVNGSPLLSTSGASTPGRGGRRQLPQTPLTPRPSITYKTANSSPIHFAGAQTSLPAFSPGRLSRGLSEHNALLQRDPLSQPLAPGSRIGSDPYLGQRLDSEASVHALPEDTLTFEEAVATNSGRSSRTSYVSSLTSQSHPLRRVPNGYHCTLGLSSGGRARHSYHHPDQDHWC
T3 sequence (Q02410 whole entry): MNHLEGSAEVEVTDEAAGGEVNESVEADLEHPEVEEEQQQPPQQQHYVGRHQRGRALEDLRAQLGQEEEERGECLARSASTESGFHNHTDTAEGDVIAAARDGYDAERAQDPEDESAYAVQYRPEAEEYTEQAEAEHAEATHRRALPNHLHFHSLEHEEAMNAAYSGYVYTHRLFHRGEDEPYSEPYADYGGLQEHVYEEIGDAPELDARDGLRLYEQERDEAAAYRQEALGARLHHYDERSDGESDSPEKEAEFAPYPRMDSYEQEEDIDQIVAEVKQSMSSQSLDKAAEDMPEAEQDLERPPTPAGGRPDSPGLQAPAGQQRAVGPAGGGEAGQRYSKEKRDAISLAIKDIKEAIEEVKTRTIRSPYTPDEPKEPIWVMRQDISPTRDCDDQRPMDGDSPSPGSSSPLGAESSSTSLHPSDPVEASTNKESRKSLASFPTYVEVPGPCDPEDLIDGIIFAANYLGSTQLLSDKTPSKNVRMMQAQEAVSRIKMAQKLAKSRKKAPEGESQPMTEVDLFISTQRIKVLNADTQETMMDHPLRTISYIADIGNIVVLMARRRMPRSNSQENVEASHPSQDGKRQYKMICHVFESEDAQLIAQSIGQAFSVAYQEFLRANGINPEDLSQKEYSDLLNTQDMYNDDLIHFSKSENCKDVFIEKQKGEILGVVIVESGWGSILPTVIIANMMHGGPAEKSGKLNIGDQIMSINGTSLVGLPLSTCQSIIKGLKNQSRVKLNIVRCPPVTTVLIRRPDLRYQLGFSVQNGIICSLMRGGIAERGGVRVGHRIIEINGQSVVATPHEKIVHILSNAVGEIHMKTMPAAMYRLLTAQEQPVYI

[12] = molecular target: T3, Voltage-gated N-type calcium channel alpha-1B subunit/Amyloid beta A4 precursor protein-binding family A member 1; assay type: protein assay; remark: listed apart in the source
[13] = molecular target: T4, Perilipin-1/ABHD5 (Homo sapiens, UniProt O60240+Q8WTS1); assay: Luminescence-based biochemical high throughput dose response assay for inhibitors of the interaction of the lipase co-activator protein, abhydrolase domain containing 5 (ABHD5) with perilipin-1 (PLIN1) (2K validation set). [Related pubchem assays (depositor defined):AID493027, AID493057]
T4 sequence (Q8WTS1 whole entry): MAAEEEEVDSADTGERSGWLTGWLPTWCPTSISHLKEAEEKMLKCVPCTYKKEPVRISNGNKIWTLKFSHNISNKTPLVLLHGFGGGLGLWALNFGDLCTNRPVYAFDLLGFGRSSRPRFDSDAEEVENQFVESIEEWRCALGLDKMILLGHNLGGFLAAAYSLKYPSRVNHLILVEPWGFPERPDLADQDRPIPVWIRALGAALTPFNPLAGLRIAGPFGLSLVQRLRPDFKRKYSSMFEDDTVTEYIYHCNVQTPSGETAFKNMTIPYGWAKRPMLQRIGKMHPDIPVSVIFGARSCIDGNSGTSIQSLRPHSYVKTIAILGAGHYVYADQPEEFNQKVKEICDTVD
T4 sequence (O60240 whole entry): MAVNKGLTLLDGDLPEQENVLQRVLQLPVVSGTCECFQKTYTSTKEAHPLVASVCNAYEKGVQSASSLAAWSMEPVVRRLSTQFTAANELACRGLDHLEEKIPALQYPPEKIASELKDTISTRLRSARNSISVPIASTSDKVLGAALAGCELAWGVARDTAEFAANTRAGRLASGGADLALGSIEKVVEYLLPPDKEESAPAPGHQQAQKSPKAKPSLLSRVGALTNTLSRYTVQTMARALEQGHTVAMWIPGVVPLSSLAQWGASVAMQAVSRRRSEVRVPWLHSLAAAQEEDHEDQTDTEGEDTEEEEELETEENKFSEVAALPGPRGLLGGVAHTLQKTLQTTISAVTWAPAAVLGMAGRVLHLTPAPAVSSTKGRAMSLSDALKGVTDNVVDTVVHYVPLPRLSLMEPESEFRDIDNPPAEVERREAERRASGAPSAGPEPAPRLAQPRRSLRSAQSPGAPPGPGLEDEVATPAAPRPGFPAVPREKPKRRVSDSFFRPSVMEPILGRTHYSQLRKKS

[14] = molecular target: T5, 1-acylglycerol-3-phosphate O-acyltransferase ABHD5/Perilipin-5 (Homo sapiens, UniProt Q00G26+Q8WTS1); assay: Luminescence-based biochemical high throughput dose response assay for inhibitors of the interaction of the lipase co-activator protein, abhydrolase domain containing 5 (ABHD5) with perilipin-5 (MLDP; PLIN5) (2K validation set). [Related pubchem assays (depositor defined):AID493035, AID493241]
T5 sequence (Q00G26 whole entry): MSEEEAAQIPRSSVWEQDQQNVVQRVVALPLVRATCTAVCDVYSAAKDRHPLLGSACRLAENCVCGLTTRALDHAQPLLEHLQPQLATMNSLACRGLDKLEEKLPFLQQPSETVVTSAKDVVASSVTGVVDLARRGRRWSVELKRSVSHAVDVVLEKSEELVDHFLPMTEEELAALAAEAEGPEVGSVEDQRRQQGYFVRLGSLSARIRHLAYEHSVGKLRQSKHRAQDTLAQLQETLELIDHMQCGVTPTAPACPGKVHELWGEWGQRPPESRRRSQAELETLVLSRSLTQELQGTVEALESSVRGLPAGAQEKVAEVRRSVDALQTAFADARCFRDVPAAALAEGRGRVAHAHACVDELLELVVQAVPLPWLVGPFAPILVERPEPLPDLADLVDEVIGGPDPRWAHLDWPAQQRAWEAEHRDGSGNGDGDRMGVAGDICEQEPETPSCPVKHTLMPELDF
T5 sequence (Q8WTS1 whole entry): T4 sequence (Q8WTS1 whole entry)

[15] = molecular target: Intestinal-type alkaline phosphatase (Homo sapiens, UniProt P09923); assay: Dose Response confirmation of uHTS hits from a small molecule inhibitors of human intestinal alkaline phosphatase via a luminescent assay. [Related pubchem assays (depositor defined):AID2544, AID2574]; assay type: functional
Intestinal-type alkaline phosphatase, sequence (P09923 whole entry): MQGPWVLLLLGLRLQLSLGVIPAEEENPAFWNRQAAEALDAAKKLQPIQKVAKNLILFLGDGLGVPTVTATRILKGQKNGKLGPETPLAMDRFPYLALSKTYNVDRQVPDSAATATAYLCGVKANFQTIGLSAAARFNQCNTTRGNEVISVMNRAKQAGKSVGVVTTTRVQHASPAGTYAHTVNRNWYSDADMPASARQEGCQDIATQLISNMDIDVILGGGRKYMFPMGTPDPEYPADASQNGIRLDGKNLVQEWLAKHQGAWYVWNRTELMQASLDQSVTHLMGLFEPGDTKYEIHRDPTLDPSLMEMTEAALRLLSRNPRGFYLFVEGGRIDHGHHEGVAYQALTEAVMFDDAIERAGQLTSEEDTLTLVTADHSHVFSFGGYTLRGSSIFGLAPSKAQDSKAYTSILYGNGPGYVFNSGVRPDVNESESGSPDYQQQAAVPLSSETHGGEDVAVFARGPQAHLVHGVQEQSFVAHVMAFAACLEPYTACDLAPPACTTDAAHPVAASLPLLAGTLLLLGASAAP

[16] = molecular target: Troponin, cardiac muscle (Homo sapiens, UniProt P19429+P45379+P63316); assay: Fluorescence-based biochemical high throughput dose response assay for activators of the calcium sensitivity of cardiac Regulated Thin Filaments (RTF). [Related pubchem assays (depositor defined):AID493008, AID493018, AID504382, AID504383]; assay type: protein-complex assay

T1 sequence (Q9UBE0 whole entry): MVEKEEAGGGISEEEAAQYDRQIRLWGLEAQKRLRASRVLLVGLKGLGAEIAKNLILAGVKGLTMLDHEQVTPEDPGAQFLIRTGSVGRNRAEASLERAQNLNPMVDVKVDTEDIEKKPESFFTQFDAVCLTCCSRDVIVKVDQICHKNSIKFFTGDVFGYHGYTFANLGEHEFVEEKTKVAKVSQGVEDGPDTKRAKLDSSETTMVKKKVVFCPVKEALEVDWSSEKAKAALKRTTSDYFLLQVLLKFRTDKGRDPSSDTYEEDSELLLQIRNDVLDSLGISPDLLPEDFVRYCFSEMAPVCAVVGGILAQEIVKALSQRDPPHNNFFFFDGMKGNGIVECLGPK
T1 sequence (Q9UBT2 whole entry): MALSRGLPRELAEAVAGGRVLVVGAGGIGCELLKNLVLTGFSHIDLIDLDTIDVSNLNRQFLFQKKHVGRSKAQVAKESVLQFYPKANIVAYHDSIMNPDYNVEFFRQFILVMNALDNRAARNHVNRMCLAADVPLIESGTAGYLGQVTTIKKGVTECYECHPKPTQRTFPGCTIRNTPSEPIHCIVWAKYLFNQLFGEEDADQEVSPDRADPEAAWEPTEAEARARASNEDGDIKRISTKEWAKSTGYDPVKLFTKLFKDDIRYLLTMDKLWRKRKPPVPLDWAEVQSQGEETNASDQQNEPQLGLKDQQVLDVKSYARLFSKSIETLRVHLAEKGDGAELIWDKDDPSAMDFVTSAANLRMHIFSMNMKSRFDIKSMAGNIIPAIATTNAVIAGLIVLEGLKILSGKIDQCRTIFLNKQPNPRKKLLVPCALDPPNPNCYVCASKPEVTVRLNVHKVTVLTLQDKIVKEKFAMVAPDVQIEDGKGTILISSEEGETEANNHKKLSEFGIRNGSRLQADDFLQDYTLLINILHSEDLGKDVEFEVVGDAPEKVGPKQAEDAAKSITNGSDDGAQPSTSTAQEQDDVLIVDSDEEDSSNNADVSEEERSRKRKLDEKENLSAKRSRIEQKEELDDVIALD

CCCCC(=O)NC(c1ccccc1Cl)c1ccc2cccnc2c1O (configuration not stated)
EC50 [1]: 8.93 µM (active)
IC50 [2]: 9.96 µM (active)
IC50 [3]: > 119 µM (inactive)
AC50 [4]: 3.56 µM (active)
AC50 [5]: 1.12 µM (active)
AC50 [6]: 0.856 µM (active)
IC50 [7]: > 119 µM (inactive)
EC50 [8]: > 350 µM (not active)
IC50 [9]: > 100 µM (inactive)
AC50 [10]: 0.645 µM (active)

COc1ccc(N2C(=O)NC(=O)/C(=C\c3c[nH]c4ccccc34)C2=O)cc1
IC50 [11]: 23.7 µM (active)
IC50 [12]: > 50 µM (inactive)

COc1ccc(/C=C2\CC/C(=C\c3ccc(OC)c(OC)c3)C2=O)cc1OC
IC50 [13]: 5.6 µM (active)
IC50 [14]: 5.24 µM (active)

Cc1cc(C)n(C(=O)C23CC4CC(CC(C4)C2)C3)n1
IC50 [15]: > 100 µM (inactive)

O=C(CCN1C(=O)/C(=C/c2ccccc2Cl)SC1=S)NC1CCS(=O)(=O)C1 (configuration not stated)
IC50 [11]: 5.22 µM (active)
IC50 [12]: > 50 µM (inactive)

CSCCC(NC(=O)OC(C)(C)C)C(=O)Oc1ccc2c(=O)c(-c3ccc4c(c3)OCCO4)coc2c1 (configuration not stated)
IC50 [13]: 2.99 µM (active)
IC50 [14]: 3.94 µM (active)

COc1ccc2[nH]c(-c3ccccn3)nc2c1
EC50 [16]: > 71.5 µM (inactive)

COc1cc(N2CCCC2)c(OC)cc1/C=C1/NC(=S)NC1=O
EC50 [16]: 1.14 µM (active)

O=C(O)COn1c(-c2ccc(Cl)cc2)nc2ccc(Cl)cc21
IC50 [15]: > 100 µM (inactive)

— ChEMBL document CHEMBL1201862, “PubChem BioAssay data set” (2004)
